Test results published in US11376216B2, “Periodontal disease therapy” (New York University, priority 2018, dated 2022).

Assays:
pre-osteoclastic cells = test: Viability/proliferation of osteoclast progenitors (cytotoxicity of 4C); format: cell-based, mouse; conditions: at up to 100 μM; without RANKL and M-CSF
Description: (§1) (A) “4C” structure with NMR in dimethyl sulfoxide (DMSO). (B) Purity by high-performance liquid chromatography (HPLC). Ficoll processed non-adherent bone marrow cells were seeded at 20,000 per well in 96-well-plate and stimulated with the indicated concentration of cytokines (macrophage-colony stimulating factor (M-CSF), 30 ng ml^−1 from day 1; receptor activator of nuclear factor kappa-B ligand (RANKL), 50 ng ml^−1 from day 3); fresh cytokines were added every other day. (C) No cytotoxicity of 4C to the proliferation of osteoclast (OC) progenitors (without RANKL and M-CSF). (D-E) Representative TRAP staining images and analysis of WT mouse bone marrow in vitro OC cultures treated with 1 mM succinate or control in the presence of SucnR1 antagonist 4C at indicated concentrations. **p<0.01, *** p<0.001 according to Bonferroni post hoc test after ANOVA, N=5.
(§2) The structure of the synthetic antagonist of SucnR1 4C was authenticated using nuclear magnetic resonance spectroscopy (FIG. 2A) with a purity of 98.002% according to high-performance liquid chromatography (FIG. 2B).

[1] = tested on: osteoclast culture derived from ficoll processed mouse bone marrow cells; test: Succinate-stimulated osteoclastogenesis in bone marrow osteoclast cultures (TRAP staining); format: cell-based; conditions: 1 mM succinate, in vitro
Description: as §1, §2

[2] = biological target: T1, Human Succinate Receptor 1 (Homo sapiens, UniProt Q9BXA5); test: Human Succinate Receptor 1 AequoScreen cell line calcium signal upon succinate activation; format: cell-based; conditions: succinate 500 μM, read-out: inhibition of SucnR1 activation by succinate
T1 sequence (Q9BXA5 1-334): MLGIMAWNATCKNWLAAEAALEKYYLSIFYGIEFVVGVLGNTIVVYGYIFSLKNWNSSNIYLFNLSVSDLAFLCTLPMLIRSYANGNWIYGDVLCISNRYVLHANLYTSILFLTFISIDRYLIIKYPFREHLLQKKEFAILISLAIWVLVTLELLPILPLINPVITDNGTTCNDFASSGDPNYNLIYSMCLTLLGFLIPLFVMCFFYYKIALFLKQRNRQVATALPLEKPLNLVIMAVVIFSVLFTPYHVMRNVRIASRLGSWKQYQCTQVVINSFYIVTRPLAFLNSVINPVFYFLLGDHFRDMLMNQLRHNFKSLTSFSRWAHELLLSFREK
Description: Human Succinate Receptor 1 AequoScreen® Cell Line (PerkinElmer ES-744-A) was used to assess the activity of SUCNR1 upon activation by ligand (succinate 500 μM) in the presence and absence of antagonists. Cells were seeded at 5,000 cells/well for 24 hour before the calcium dye was added. Forty-five minutes later, the antagonists were added at indicated concentrations. Fifteen minutes later, the ligand was added and the fluorescent signal (EX/EM: 485/525) was measured immediately on a plate reader. A) The efficacy of 3 newly synthesized compounds in comparison with 4C at the same concentration. (*p<0.05, **p<0.001 by t-test in comparison to ligand alone post One-Way ANOVA) B) Dose effects of the compound 7a at various concentrations. (*p<0.05, **p<0.001 in comparison to […] by t-test post One-Way ANOVA).
Structure-activity relationship studies were performed using the compounds depicted in FIG. 7. The structure and purity of the compounds were confirmed via HPLC and NMR. At the same concentration of 4C, these antagonists inhibited the activation of SucnR1 by succinate in vitro (FIG. 8A).

Structure (SMILES) | inhibitory effect on the viability of pre-osteoclastic cells (pre-osteoclastic cells) | reduction of succinate stimulation of osteoclastogenesis ([1]; 4C at 0.1 μM) | reduction of succinate stimulation of osteoclastogenesis ([1]; 4C at 10 μM) | inhibition at 20 µM [2]
C[C@H](NC(=O)Cc1ccc(-c2ccc3cccnc3n2)cc1)c1ccc(-c2ccc(F)c(C(F)(F)F)c2)cc1 [4C] | no inhibitory effect | started to reduce the stimulation of succinate | completely erase the simulation of osteoclastogenesis by succinate | 
CNC(=O)Cc1ccc(-c2ccc3cccnc3n2)cc1 [Cpd-7a] |  |  |  | 50%
